In US20250230165A1, “HETEROCYCLIC COMPOUNDS FOR USE IN THE TREATMENT OF CANCER” (ARTIOS PHARMA LIMITED, priority 2021, published 2025) one finds Kinact/Kl data, which are given here for 16 compounds.

The assay has as its target T1, Human Polθ polymerase domain (aa1820-2590) (Homo sapiens, UniProt O75417).
T1 construct: Human Polθ polymerase domain (aa1820-2590) was expressed in E. coli; made in house; host or cells: E. coli
T1 sequence (O75417 1820-2590): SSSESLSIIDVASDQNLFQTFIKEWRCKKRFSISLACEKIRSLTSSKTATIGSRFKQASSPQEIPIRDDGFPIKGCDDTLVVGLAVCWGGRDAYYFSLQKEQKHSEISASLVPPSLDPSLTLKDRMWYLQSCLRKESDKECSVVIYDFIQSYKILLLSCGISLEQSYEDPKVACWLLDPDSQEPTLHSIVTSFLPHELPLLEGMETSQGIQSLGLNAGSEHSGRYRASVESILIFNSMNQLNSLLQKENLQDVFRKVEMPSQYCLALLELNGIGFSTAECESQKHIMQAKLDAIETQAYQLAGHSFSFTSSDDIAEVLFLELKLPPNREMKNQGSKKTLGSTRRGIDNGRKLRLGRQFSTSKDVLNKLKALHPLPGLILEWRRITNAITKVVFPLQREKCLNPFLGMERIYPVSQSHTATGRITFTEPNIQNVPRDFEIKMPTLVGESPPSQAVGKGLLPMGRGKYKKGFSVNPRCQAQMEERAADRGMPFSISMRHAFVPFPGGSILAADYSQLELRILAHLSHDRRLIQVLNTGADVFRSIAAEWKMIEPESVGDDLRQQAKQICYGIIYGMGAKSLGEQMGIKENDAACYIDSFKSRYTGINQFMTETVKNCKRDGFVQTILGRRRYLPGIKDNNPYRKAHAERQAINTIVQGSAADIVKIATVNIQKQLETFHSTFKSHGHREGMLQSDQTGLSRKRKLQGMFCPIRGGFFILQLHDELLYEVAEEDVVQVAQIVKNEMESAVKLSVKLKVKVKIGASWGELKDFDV
Put plainly: Polθ Polymerase Domain Kinact/KI Assay (PicoGreen). In kind it is biochemical. As to conditions: 0.8 nM Polθ, 100 nM DNA substrate, kobs vs [I] fit for 2-step covalent inhibitor. The method in brief:
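Covalent inhibitors were tested against E. coli-expressed enzyme (0.8 nM final) with 100 nM annealed DNA substrate and […] in Tris pH 7.5 buffer, 1% DMSO. Reactions were EDTA-quenched over a 0–60 min time course and product DNA detected by PicoGreen fluorescence.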
For the compound `C=CC(=O)N1CC2(CN(CCN3C[C@H]4CC(=O)N(c5cc(C(F)(F)F)cc(C)n5)[C@@H]4C(=O)N(C)c4cccc(F)c43)C[C@@H](C)N2)C1` [Example 31, (3aR,11aS)-5-(2-((R)-2-acryloyl-6-methyl-2,5,8-triazaspiro[3.5]nonan-8-yl)ethyl)-6-fluoro-10-methyl-1-(6-methyl-4-(trifluoromethyl)pyridin-2-yl)-1,3a,4,5,10, 11a-hexahydro-2H-benzo [b]pyrrolo[2,3-f][1,4] diazocine-2,11(3H)-dione], the Kinact/Kl is 1.13e+06 M⁻¹ s⁻¹.
`Cc1cc(C(F)(F)F)cc(N2C(=O)C[C@@H]3CN(CC45CC(NC(=O)/C=C/CN(C)C)(C4)C5)c4c(C)cccc4N(C)C(=O)[C@H]32)n1` [Example 178, (E)-N-(3-(((3aR, 11aS)-6,10-dimeth-yl-1-(6-methyl-4-(trifluoromethyl)-pyridin-2-yl)-2,11-dioxo-1,2,3,3a,4, 10,11,11a-octa-hydro-5H-benzo [b]pyrrolo[2,3-f] [1,4]diazocin-5-yl)methyl)bicyclo [1.1.1]pentan-1-yl)-4-(dimethyl-amino)but-2-enamide] had a Kinact/Kl of 1.6e+06 M⁻¹ s⁻¹.
In turn, `C=CC(=O)N1CC2(CN(CCN3C[C@H]4CC(=O)N(c5cc(C(F)(F)F)cc(C)n5)[C@@H]4C(=O)N(C)c4cccc(Cl)c43)C[C@@H](C)N2)C1` [Example 13, (3aR,11aS)-5-(2-((R)-2-acryloyl-6-methyl-2,5,8-triazaspiro[3.5]nonan-8-yl)ethyl)-6-chloro-10-methyl-1-(6-methyl-4-(trifluoromethyl)pyridin-2-yl)-1,3a,4,5,10,11a-hexahydro-2H-benzo[b]pyrrolo[2,3-f][1,4]diazocine-2,11(3H)-dione] showed a Kinact/Kl of 1.26e+06 M⁻¹ s⁻¹.
In the case of `C=C(CN(C)C)C(=O)N1CC(c2cc(CN3C[C@H]4CC(=O)N(c5cc(C(F)(F)F)cc(C)n5)[C@@H]4C(=O)N(C)c4cccc(C)c43)ccc2F)C1` [Example 187, (3aR,11aS)-5-(3-(1-(2-((dimethyl-amino)methyl)-acryloyl)azetidin-3-yl)-4-fluorobenz-yl)-6,10-dimethyl-1-(6-methyl-4-(trifluoromethyl)-pyridin-2-yl)-1,3a,4,5,10,11a-hexahydro-2H-benzo[b]pyrrolo [2,3-f][1,4]diazo-cine-2,11(3H)-dione], the Kinact/Kl came out at 1.41e+06 M⁻¹ s⁻¹.
On to `C=CC(=O)N1CCCC1c1ccc(CN2C[C@H]3CC(=O)N(c4cc(C(F)(F)F)cc(C)n4)[C@@H]3C(=O)N(C)c3cccc(F)c32)cc1` (single isomer, unassigned) [Example 141a], for which the Kinact/Kl came to 200000 M⁻¹ s⁻¹.
Consider `C=C(CN(C)C)C(=O)N1CCC[C@H]1c1ccc(CN2C[C@H]3CC(=O)N(c4cc(C(F)(F)F)cc(C)n4)[C@@H]3C(=O)N(C)c3cccc(F)c32)cc1` (racemic) [Example 171b, (3aR,11aS)-5-(4-((S/R)-1-(2-((di-methylamino)-methyl)acryloyl)-pyrrolidin-2-yl)-benzyl)-6-fluoro-10-methyl-1-(6-methyl-4-(tri-fluoromethyl)-pyridin-2-yl)-1,3a,4,5,10,11a-hexahydro-2H-benzo[b]pyrrolo [2,3-f][1,4]diazo-cine-2,11(3H)-dione], for which the Kinact/Kl was 1.62e+06 M⁻¹ s⁻¹.
Turning to `C=CC(=O)N1CC(c2cccc(CN3C[C@H]4CC(=O)N(c5cc(C(F)(F)F)cc(C)n5)[C@@H]4C(=O)N(C)c4cccc(F)c43)n2)C1` [Example 128, (3aR,11aS)-5-((6-(1-acryloylazetidin-3-yl)pyridin-2-yl)methyl)-6-fluoro-10-methyl-1-(6-methyl-4-(trifluoromethyl)pyridin-2-yl)-1,3a,4,5,10,11a-hexahydro-2H-benzo[b]pyrrolo[2,3-f][1,4]diazocine-2,11(3H)-dione], the Kinact/Kl was found to be 660000 M⁻¹ s⁻¹.
`C=CC(=O)N1C[C@@H]2CN(CCN3C[C@H]4CC(=O)N(c5cc(C(F)(F)F)cc(C)n5)[C@@H]4C(=O)N(C)c4cccc(F)c43)CCN2C[C@@H]1C` (single isomer, unassigned) [Example 9] registered a Kinact/Kl of 600000 M⁻¹ s⁻¹.
In the case of `Cc1cc(C(F)(F)F)cc(N2C(=O)C[C@@H]3CN(CCCOC4CN(C(=O)/C=C/CN(C)C)C4)c4c(C)cccc4N(C)C(=O)[C@H]32)n1` [Example 169, (3aR,11aS)-5-(3-((1-((E)-4-(dimethylamino)but-2-enoyl)azetidin-3-yl)oxy)propyl)-6,10-dimethyl-1-(6-methyl-4-(trifluoromethyl)pyridin-2-yl)-1,3a,4,5,10,11a-hexahydro-2H-benzo[b]pyrrolo[2,3-f][1,4]diazocine-2,11(3H)-dione], the Kinact/Kl was found to be 2.69e+06 M⁻¹ s⁻¹.
For `C=CC(=O)N1Cc2cc(CN3C[C@H]4CC(=O)N(c5cc(C(F)(F)F)cc(C)n5)[C@@H]4C(=O)N(C)c4cccc(C)c43)cnc2C1` [Example 312, (3aR,11aS)-5-((6-acryloyl-6,7-dihydro-5H-pyr-rolo[3,4-b]pyridin-3-yl)methyl)-6,10-dimethyl-1-(6-methyl-4-(trifluoro-methyl)pyridin-2-yl)-1,3a,4,5,10, 11a-hexahydro-2H-benzo[b]pyrrolo [2,3-f][1,4]diazo-cine-2,11(3H)-dione], the Kinact/Kl is 1.85e+06 M⁻¹ s⁻¹.
In turn, `C=CC(=O)N1Cc2nc(CN3C[C@H]4CC(=O)N(c5cc(C(F)(F)F)cc(C)n5)[C@@H]4C(=O)N(C)c4cccc(C)c43)cn2C[C@@H]1C` (racemic) [Example 206b, (3aR,11aS)-5-(((S/R)-7-acryloyl-6-methyl-5,6,7,8-tetrahydroimidazo [1,2-a]pyrazin-2-yl)methyl)-6,10-dimethyl-1-(6-methyl-4-(trifluoromethyl)pyridin-2-yl)-1,3a,4,5,10,11a-hexahydro-2H-benzo[b]pyrrolo [2,3-f][1,4]diazocine-2,11(3H)-dione] showed a Kinact/Kl of 4.19e+06 M⁻¹ s⁻¹.
`C=C(CN(C)C)C(=O)NC12CC(CN3C[C@H]4CC(=O)N(c5cc(C(F)(F)F)cc(C)n5)[C@@H]4C(=O)N(C)c4cccc(Cl)c43)(C1)C2` [Example 164, N-(3-(((3aR,11aS)-6-chloro-10-methyl-1-(6-methyl-4-(trifluoromethyl)pyridin-2-yl)-2,11-dioxo-1,2,3,3a,4, 10,11,11a-octahydro-5H-benzo[b]pyrrolo[2,3-f][1,4]diazocin-5-yl)methyl)bicyclo[1.1.1]pentan-1-yl)-2-((dimethylamino)methyl) acrylamide] returned a Kinact/Kl of 2.38e+06 M⁻¹ s⁻¹.
The compound `C=CC(=O)N1CC2(C1)N[C@H](C)CN(CCN1C[C@H]3CC(=O)N(c4cc(C(F)(F)F)cc(C)n4)[C@@H]3C(=O)N(C)c3cccc(F)c31)C2C` (stereo partly drawn) [Example 37a, (3aR,11aS)-5-(2-((6R,9S/R)-2-acryloyl-6,9-dimethyl-2,5,8-triazaspiro[3.5]nonan-8-yl)ethyl)-6-fluoro-10-methyl-1-(6-methyl-4-(trifluoromethyl)pyridin-2-yl)-1,3a,4,5,10,11a-hexahydro-2H-benzo[b]pyrrolo[2,3-f][1,4]diazocine-2,11(3H)-dione] had a Kinact/Kl of 1.48e+06 M⁻¹ s⁻¹.
Then `Cc1cc(C(F)(F)F)cc(N2C(=O)C[C@@H]3CN(CCCOC4CN(C(=O)/C=C/CN(C)C)C4)c4c(F)cccc4N(C)C(=O)[C@H]32)n1` [Example 43, (3aR,11aS)-5-(3-((1-((E)-4-(dimethylamino)but-2-enoyl)azetidin-3-yl)oxy)propyl)-6-fluoro-10-methyl-1-(6-methyl-4-(trifluoromethyl)pyridin-2-yl)-1,3a,4,5,10,11a-hexahydro-2H-benzo[b]pyrrolo[2,3-f][1,4]diazocine-2,11(3H)-dione], with 1.9e+06 M⁻¹ s⁻¹.
As for `C=CC(=O)N1Cc2cnc(CN3C[C@H]4CC(=O)N(c5cc(C(F)(F)F)cc(C)n5)[C@@H]4C(=O)N(C)c4cccc(Cl)c43)nc2C1` [Example 278, (3aR,11aS)-5-((6-acryloyl-6,7-dihydro-5H-pyrrolo[3,4-d]pyrimidin-2-yl)methyl)-6-chloro-10-methyl-1-(6-methyl-4-(trifluoromethyl)pyridin-2-yl)-1,3a,4,5,10,11a-hexahydro-2H-benzo[b]pyrrolo[2,3-f][1,4]diazocine-2,11(3H)-dione], the Kinact/Kl was 770000 M⁻¹ s⁻¹.
Take `C/C=C(\CN(C)C)C(=O)N1CC(OCCCN2C[C@H]3CC(=O)N(c4cc(C(F)(F)F)cc(C)n4)[C@@H]3C(=O)N(C)c3cccc(C)c32)C1` [Example 194, (3aR,11aS)-5-(3-((1-((E)-2-((dimeth-ylamino)methyl)-but-2-enoyl)azeti-din-3-yl)oxy)prop-yl)-6,10-dimethyl-1-(6-methyl-4-(trifluoromethyl)-pyridin-2-yl)-1,3a,4,5,10,11a-hexahydro-2H-benzo[b]pyrrolo [2,3-f][1,4]diazo-cine-2,11(3H)-dione]: the Kinact/Kl was 4.38e+06 M⁻¹ s⁻¹.
